Each structure is given as a SMILES string.

The record followed here is patent US5668137A, “N-heterocyclic sulfonamides having endothelin receptor activity” (Zeneca Ltd., priority 1995, dated 1997).

The test deals with Human ETA or ETB receptors. The test is described as follows: Test A: inhibition of [125I]-Endothelin-1 binding to MEL cell membranes expressing recombinant receptor. Conditions: inhibition of 30 pM [125I]-Endothelin-1 binding, 180 minutes at 30° C., receptor sub-type (ETA or ETB) not stated. The text has this: The endothelin receptor antagonist activity of compounds of formula I may be assessed in vitro by their ability to inhibit binding of [^125 ]-Endothelin-1 to its receptors. Human ETA or ETB receptors (sub-types of the endothelin receptor) were expressed in Mouse Erythroleukemic Cells (MEL cells) by using standard molecular techniques (for example, as described by Sambrook J., Fritsch E. F. & Maniatis T. (1989) Molecular Cloning: A Laboratory Manual, 2nd Edition, Cold Spring Harbor Press, USA). cDNA sequences encoding the human ETA, and ETB receptor (Hosoda K. et al (1991), FEBS Lett., 287, 23-26 and Sakamoto A. et al, (1991), Biochem. Biophys Res. Comm., 178, 656-663) are subcloned into pBluescript vector followed by insertion into the MEL cell expression vector pEV as described by Needham et al (1992), Nuc. Acids Res., 20, 997-1003. […]
[^125 I]-Endothelin-1 binding to MEL cell membranes was measured in incubation buffer containing 50 mM Tris HCl, 1 mM CaCl2, 0.05% polyoxyethylenesorbitan monolaurate, 0.1% Bovine Serum Albumin (BSA), 0.02% sodium azide pH 7.4 at 30° C. after 180 minutes incubation. […] Nonspecific binding was measured in the presence of 100 nM unlabelled Endothelin-1. […] The filter discs were punched out and counted in a gamma counter. Compounds are tested in triplicate over a range of concentrations and IC50 (or pIC50) values calculated.

On to `COc1nc(C)cnc1NS(=O)(=O)c1ccccc1-c1ccc(CC(C)C(=O)O)cc1` (stereo not shown) [Example 1, 4'-(2-carboxypropyl)-N-(3-methoxy-5-methylpyrazin-2-yl)-2-biphenylsulphonamide], for which the “pIC50 in Test A” value stood at 8.3.
